Assay results: patent US12618044B2, “Specification of functional cranial placode derivatives from human pluripotent stem cells” (MEMORIAL SLOAN-KETTERING CANCER CENTER, priority 2013, dated 2026)
Where a name gives a salt, the structure may show the parent alone.

Legend:
Format in all cases: cell-based, human
pre-placodal cells = assay: Pituitary placode specification under modified PIP
Source text: Further treatment with agonists for SHH signaling (FIG. 39A) at the pre-placode stage (day 7-11) induced expression of the oral ectoderm marker SIX6 and PITX1 (FIG. 38B), master regulators of pituitary gland development (Tremblay et al., 1998).
Endocrine cells of the anterior pituitary gland are derived from three main precursors lineages (Scully and Rosenfeld, 2002). […] Induction of PIT1 and GATA2 precursor lineages was less efficient but was increased following treatment with the γ-secretase inhibitor DAPT (FIGS. 38F, 38G).
Differentiation of hormone producing cells: During placode induction protocol, Sonic Hedgehog (C25II-R&D 100 ng/ml) and Purmorphamine (Stemgent, 1 μM) were added between days 7-11 of PIP to promote differentiation towards pituitary placode anlage. The cells were maintained without passaging in N2 medium and treated with additional factors such as DAPT (Tocris, 10 μM), between day 13 and day 17 of differentiation to induce PIT1+ and GATA2+ precursor cells (see FIG. 39A).

SIX1::GFP cells = assay: PIP-E6 pituitary induction and hormone release
Experimental: Induction of anterior pituitary gland cells: Pituitary placode cells were induced by culturing SIX1::GFP cells according to the PIP-E6 protocol, wherein pituitary factors SHH, FGF8, FGF10 and/or hypothalamus CM were supplemented in the culture media from days 6-15.
Induction of anterior pituitary gland cells: SIX1::GFP hPSCs were cultured according to a modified PIP-E6 protocol, wherein pituitary factors such as FGF8, FGF10 or SHH, etc., were included in the culture media from days 6-14. Cells were sorted based on expression of SIX1::GFP, and were replated at a concentration of 10,000 cells/cm^2 on PO/L/F, and were incubated with small molecule/growth factors for 2 weeks. (FIG. 68). […] (FIG. 69).

hESC = assay: Neural induction of hESC by dual SMAD inhibition (PAX6 expression); conditions: 10 uM to 30 nM, each added to 10 uM of SB431542
Experimental: In one embodiment, the present invention contemplates a method establishing an even cell distribution for inducing homogenous neural differentiation of hESCs. To this end, undifferentiated hESC were dissociated into single cells and re-plated onto Matrigel coated dishes in conditioned medium supplement with ROCK inhibitor, Y-27632 (Wananabe et al., 2007). After 72 hours, cells were switched from hESC conditions to knock-out serum replacement medium (KSR) containing either Noggin, SB4315242, or both factors and allowed to differentiate for a total of 11 days (FIG. 1A). […] Neural induction was monitored by expression of PAX6, an early marker of neuroectodermal differentiation (Callaerts, et al., Annu Rev Neurosci 20:483 (1997).
hESC cultures were disaggregated using accutase for 20 minutes, washed using hESC media and pre-plated on gelatin for 1 hour at 37° C. in the presence of ROCK inhibitor to remove MEFs. The nonadherent hESC were washed and plated on matrigel at a density of 10,000-25,000 cells/cm^2 on matrigel (BD) coated dishes in MEF conditioned hESC media (CM) spiked with 10 ng/mL of FGF-2 and ROCK-inhibitor. […] The ROCK inhibitor was withdrawn, and hESC were allowed to expand in CM for 3 days or until they were nearly confluent. […]

[1] = tested on: NSB derived neural precursor cells; assay: Ventral patterning of NSB derived neural precursor cells by FP conditioned media; conditions: with CM from hESC derived FP
Source text: The FP has important functional roles during development in neural patterning and axonal path finding (Jessell, 2000). To assess the functional properties of hESCs derived FP conditioned media was isolated at days 9 and 11 and tested for expression of Netrin-1 in the medium using ELISA (FIG. 17A). Under normal NSB conditions, Netrin-1 is detectable at Day 9 and decreases at Day 11 while in the NSB+SHH condition, there is a 3.5 fold increase in Netrin-1 levels, increasing at Day 11 (FIG. 17B). SHH is a critical patterning factor secreted by FP cells and specifying ventral cell types in a dose-dependent manner. To test if hESCs derived FP secretes factors that can specify ventral precursor domains, conditioned media (CM) was isolated at Days 9 and 11 of the differentiation. At Day 6, exogenous SHH was removed and cultures were washed to eliminate any exogenously added SHH from the medium. Naïve neural progenitor cells were isolated at Day 11 of the control (NSB) protocol and cultured with either NSB CM or FP CM. After Day 5 of culture in the presence of CM, the inventors probed for the expression of ventral precursor markers and expression of the SHH responsive gene GLI2. […] Increase in the expression of ventral markers was confirmed at the level of protein (FIG. 17D).

## C[C@H](NC(=O)Cc1cc(F)cc(F)c1)C(=O)N[C@H](C(=O)OC(C)(C)C)c1ccccc1 [DAPT]
pre-placodal cells
  Induction of PIT1 and GATA2 precursor lineages: increased
SIX1::GFP cells
  proportion of each of the three pituitary precursor lineages: modulated

## c1cc(-c2cnn3cc(-c4ccc(OCCN5CCCCC5)cc4)cnc23)ccn1 [Dorsomorphin, 6-[4-[2-(1-Piperidinyl)ethoxy]phenyl]-3-(4-pyridinyl)-pyrazolo[1,5-a]pyrimidine dihydrochloride]
hESC
  efficiency based on the percentage of PAX6+ cells, versus Noggin/SB431542: not as high

## CC1=C2C[C@H]3[C@@H](CC=C4C[C@@H](O)CC[C@@]43C)[C@@H]2CC[C@]12O[C@@H]1C[C@H](C)CN[C@H]1[C@H]2C [cyclopamine]
[1]
  NKX2.1, NKX6.1, and GLI2 expression: significantly reduced
